Assay results reported in US7696129B2, “Substituted aromatic amide derivative, intermediate thereof, agrohorticultural insecticide containing thereof and method for the use thereof” (Nihon Nohyaku Co., Ltd., priority 2001, dated 2010).

How the values were obtained:
Format in all cases: in vivo
[1] = test system: Diamond Back Moth (Plutella xylostella); experiment: Test Example 1: insecticidal effect on diamond back moth, immersion of Chinese cabbage seedling with eggs; conditions: seedling with eggs immersed about 30 seconds, 25° C., six days after the immersion; for Test Example 1 (insecticidal effect, mortality criterion): 50 ppm; for mortality at 50 ppm: Plutella xylostella, 144 h, read-out: Test Example 1 (insecticidal effect, mortality criterion)
Outline: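 Chinese cabbage seedlings bearing 2-day-old moth eggs dipped about 30 s in compound at 50 ppm, air-dried, held at 25° C. Hatched larvae counted six days later to give mortality; triplicate groups of 10 insects.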

[2] = test system: Common Cutworm (Spodoptera litura); experiment: Test Example 2: insecticidal effect on common cutworm, cabbage leaf immersion; conditions: cabbage leaf immersed about 30 seconds, second-instar larvae, 25° C., eight days after the inoculation; for Test Example 2 (insecticidal effect, mortality criterion): 50 ppm; for mortality at 50 ppm: Spodoptera litura, 192 h, read-out: Test Example 2 (insecticidal effect, mortality criterion)
Outline: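 Cabbage leaf pieces dipped about 30 seconds in 50 ppm compound dilution, air-dried, then infested with second-instar larvae and kept at 25° C. Dead and alive counted eight days after inoculation to give mortality; triplicate groups of 10 insects.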

[3] = test system: Smaller Tea Tortrix (Adxophyes sp.); experiment: Test Example 3: insecticidal effect on smaller tea tortrix, tea leaf immersion; conditions: 50 ppm, tea leaves immersed about 30 seconds, larvae, 25° C., humidity 70%, eight days after the inoculation
Outline: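 Tea leaves dipped about 30 s in compound diluted to 50 ppm, air-dried, then infested with smaller tea tortrix larvae at 25°C and 70% humidity. Mortality counted 8 days post-inoculation and scored by a graded criterion; triplicate groups of 10 insects.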

[4] = test system: Diamond Back Moth (Plutella xylostella); experiment: Test Example 4: controlling effect on diamond back moth with soil treatment (pricking-in hole treatment with granules); conditions: 10 mgAI/plant, soil treatment at fix planting, about 50 eggs inoculated nine days after planting
Description: Controlling Effect on Diamond Back Moth (Plutella xylostella) with Soil Treatment of […] The pricking-in hole treatment was done with the granules containing each compound listed in Tables 4 according to the formulation examples of the present invention, at the fix planting of […] (cultivar; YR Seitoku). Nine days after the fix planting, about 50 eggs of diamond back moth (Plutella xylostella) were innoculated, then the number of the parasitic insects of diamond back moth (Plutella xylostella) was counted on the specified days after the innoculation.

Structure (SMILES)	Test Example 1 (insecticidal effect, mortality criterion) [1]	Test Example 2 (insecticidal effect, mortality criterion) [2]	Test Example 3 (insecticidal effect, mortality criterion) [3]	Number of the parasitic insects/three plants After 18 days [4]	Number of the parasitic insects/three plants After 25 days [4]	Number of the parasitic insects/three plants After 32 days [4]	mortality at 50 ppm [1]	mortality at 50 ppm [2]
CSCC(C)(C)NC(=O)c1c(I)cccc1C(=O)Nc1ccc(C(C(F)(F)F)C(F)(F)F)cc1C [5-30]	A (Mortality 100%)	A (Mortality 100%)	A (Mortality 100%)	0 parasitic insects/three plants	3 parasitic insects/three plants	22 parasitic insects/three plants		
Cc1cc(C(C(F)(F)F)C(F)(F)F)ccc1NC(=O)c1ncccc1C(=O)NC(C)C [7-1]	A (Mortality 100%)	E (Mortality 49% or less)	A (Mortality 100%)					
CSCC(C)(C)NC(=O)c1c(I)cccc1C(=O)Nc1ccc(C(C(F)(F)F)C(F)(F)F)nc1 [8-1]	A (Mortality 100%)	C (Mortality 89-80%)	E (Mortality 49% or less)					
C[S+]([O-])CC(C)(C)NC(=O)c1c(I)cccc1C(=O)Nc1ccc(C(C(F)(F)F)C(F)(F)F)nc1 (stereo not drawn) [8-2]	A (Mortality 100%)	E (Mortality 49% or less)	E (Mortality 49% or less)					
CC(C)(CS(C)(=O)=O)NC(=O)c1c(I)cccc1C(=O)Nc1ccc(C(C(F)(F)F)C(F)(F)F)nc1 [8-3]	A (Mortality 100%)	E (Mortality 49% or less)	A (Mortality 100%)					
C[S+]([O-])CC(C)(C)NC(=O)c1c(I)cccc1C(=O)Nc1ccc(C(C(F)(F)F)C(F)(F)F)nc1Cl (stereo not drawn) [8-5]	A (Mortality 100%)	A (Mortality 100%)	A (Mortality 100%)					
CC(C)(CS(C)(=O)=O)NC(=O)c1c(I)cccc1C(=O)Nc1ccc(C(C(F)(F)F)C(F)(F)F)nc1Cl [8-6]	A (Mortality 100%)	D (Mortality 79-50%)	A (Mortality 100%)					
CSCC(C)(C)NC(=O)c1c(C(=O)Nc2ccc(C(C(F)(F)F)C(F)(F)F)nc2C)cccc1[N+](=O)[O-] [8-7]	A (Mortality 100%)	C (Mortality 89-80%)	E (Mortality 49% or less)					
Cc1nc(C(C(F)(F)F)C(F)(F)F)ccc1NC(=O)c1cccc([N+](=O)[O-])c1C(=O)NC(C)(C)C[S+](C)[O-] (stereo not drawn) [8-8]	A (Mortality 100%)	E (Mortality 49% or less)	E (Mortality 49% or less)					
Cc1nc(C(C(F)(F)F)C(F)(F)F)ccc1NC(=O)c1cccc([N+](=O)[O-])c1C(=O)NC(C)(C)CS(C)(=O)=O [8-9]	A (Mortality 100%)	D (Mortality 79-50%)	E (Mortality 49% or less)					
Cc1nc(C(C(F)(F)F)C(F)(F)F)ccc1NC(=O)c1cccc(I)c1C(=O)NC(C)C [8-10]	A (Mortality 100%)	A (Mortality 100%)	A (Mortality 100%)					
CSCC(C)(C)NC(=O)c1c(I)cccc1C(=O)Nc1ccc(C(C(F)(F)F)C(F)(F)F)nc1C [8-11]	A (Mortality 100%)	A (Mortality 100%)	A (Mortality 100%)					
Cc1nc(C(C(F)(F)F)C(F)(F)F)ccc1NC(=O)c1cccc(I)c1C(=O)NC(C)(C)C[S+](C)[O-] (stereo not drawn) [8-12]	A (Mortality 100%)	A (Mortality 100%)	A (Mortality 100%)					
Cc1nc(C(C(F)(F)F)C(F)(F)F)ccc1NC(=O)c1cccc(I)c1C(=O)NC(C)(C)CS(C)(=O)=O [8-13]	A (Mortality 100%)	A (Mortality 100%)	A (Mortality 100%)					
CSCC(C)NC(=O)c1c(I)cccc1C(=O)Nc1ccc(C(C(F)(F)F)C(F)(F)F)nc1C (stereo not drawn) [8-14]	A (Mortality 100%)	A (Mortality 100%)	A (Mortality 100%)					
CCNC(=O)OCC(C)NC(=O)c1c(I)cccc1C(=O)Nc1ccc(C(C(F)(F)F)C(F)(F)F)nc1C (stereo not drawn) [8-26]	A (Mortality 100%)	D (Mortality 79-50%)	A (Mortality 100%)					
Cc1nc(C(C(F)(F)F)C(F)(F)F)ccc1NC(=O)c1cccc(I)c1C(=O)NC(C)COC(=O)NCc1ccccc1 (stereo not drawn) [8-27]	A (Mortality 100%)	E (Mortality 49% or less)	E (Mortality 49% or less)					
CSCC1(C)COC(c2c(I)cccc2C(=O)Nc2ccc(C(C(F)(F)F)C(F)(F)F)cc2C)=N1 (stereo not drawn) [10-2]	A (Mortality 100%)	E (Mortality 49% or less)	E (Mortality 49% or less)					
Cc1cc(C(C(F)(F)F)C(F)(F)F)ccc1NC(=O)c1cccc(I)c1C1=NC(C)(C[S+](C)[O-])CO1 (stereo not drawn) [10-3]	A (Mortality 100%)	E (Mortality 49% or less)	E (Mortality 49% or less)					
Cc1cc(C(C(F)(F)F)C(F)(F)F)ccc1NC(=O)c1cccc(I)c1C1=NC(C)(CS(C)(=O)=O)CO1 (stereo not drawn) [10-4]	A (Mortality 100%)	E (Mortality 49% or less)	E (Mortality 49% or less)					
CCc1cc(CC(F)(F)F)ccc1NC(=O)c1cccc(I)c1C(=O)NC(C)(C)CSC [Compound No. 5-2]	A (Mortality 100%)	A (Mortality 100%)	A (Mortality 100%)					
CSCC(C)(C)NC(=O)c1c(I)cccc1C(=O)Nc1ccc(C(C(F)(F)F)C(F)(F)F)cc1C [Compound No. 5-28, N^2-(1,1-dimethyl-2-methylthioethyl)-3-iodo-N^1-{2-methyl-4-[2,2,2-trifluoro-1-(trifluoromethyl)ethyl]phenyl}phthalamide]			A (Mortality 100%)	0 parasitic insects/three plants	5 parasitic insects/three plants	14 parasitic insects/three plants	100%	100%
Cc1cc(C(C(F)(F)F)C(F)(F)F)ccc1NC(=O)c1cccc(I)c1C(=O)NC(C)(C)C[S+](C)[O-] (stereo not drawn) [Compound No. 5-29, N^2-(1,1-dimethyl-2-methylsulfinylethyl)-3-iodo-N^1-[2-methyl-4-{2,2,2-trifluoro-1-(trifluoromethyl)ethyl}phenyl]phthalamide]			A (Mortality 100%)	0 parasitic insects/three plants	0 parasitic insects/three plants	0 parasitic insects/three plants	100%	100%
CSCC(C)(C)NC(=O)c1c(I)cccc1C(=O)Nc1ccc(C(C(F)(F)F)C(F)(F)F)nc1Cl [Compound No. 8-4, N^2-(1,1-dimethyl-2-methylthioethyl)-3-iodo-N^1-{2-chloro-6-[2,2,2-trifluoro-1-(trifluoromethyl)ethyl]pyridin-3-yl}phthalamide]			A (Mortality 100%)				100%	100%
Cc1cc(C(C(F)(F)F)C(F)(F)F)ccc1NC(=O)c1cccc(I)c1C1=NC(C)(C)CO1 [Compound No. 10-1, 3-iodo-2-(4,4-dimethyloxazolin-2-yl)-2′-methyl-4′-[2,2,2-trifluoro-1-(trifluoromethyl)ethyl]benzanilide]			E (Mortality 49% or less)				100%	≤ 49%
